# Assays:
# [1] = system: BT-549; experiment: Cytotoxicity against human BT549 assessed as cell growth at high concentration; type: functional
# [2] = system: Hs-578T; experiment: Cytotoxicity against human Hs 578T assessed as cell growth at high concentration; type: functional
# [3] = system: MDA-MB-231; experiment: Cytotoxicity against human MDA-MB-231 assessed as cell growth at high concentration; type: functional
# [4] = system: DU-145; experiment: Cytotoxicity against human DU145 assessed as cell growth at high concentration; type: functional
# [5] = system: MCF7; experiment: Cytotoxicity against human MCF7 assessed as cell growth at high concentration; type: functional
# [6] = system: UO-31; experiment: Cytotoxicity against human UO31 assessed as cell growth at high concentration; type: functional
# [7] = system: SN12C; experiment: Cytotoxicity against human SN12C assessed as cell growth at high concentration; type: functional
# [8] = system: CAKI-1; experiment: Cytotoxicity against human Caki1 assessed as cell growth at high concentration; type: functional
# [9] = system: A498; experiment: Cytotoxicity against human A498 assessed as cell growth at high concentration; type: functional
# [10] = system: 786-0; experiment: Cytotoxicity against human 786-0 assessed as cell growth at high concentration; type: functional
# [11] = system: SK-OV-3; experiment: Cytotoxicity against human SKOV3 assessed as cell growth at high concentration; type: functional
# [12] = Cytotoxicity against human NCI-ADR-RES assessed as cell growth at high concentration; type: functional
# [13] = system: OVCAR-5; experiment: Cytotoxicity against human OVCAR5 assessed as cell growth at high concentration; type: functional
# [14] = system: OVCAR-8; experiment: Cytotoxicity against human OVCAR8 assessed as cell growth at high concentration; type: functional
# [15] = system: OVCAR-4; experiment: Cytotoxicity against human OVCAR4 assessed as cell growth at high concentration; type: functional
# [16] = system: OVCAR-3; experiment: Cytotoxicity against human OVCAR3 assessed as cell growth at high concentration; type: functional
# [17] = system: IGROV-1; experiment: Cytotoxicity against human IGROV1 assessed as cell growth at high concentration; type: functional
# [18] = system: UACC-257; experiment: Cytotoxicity against human UACC257 assessed as cell growth at high concentration; type: functional
# [19] = system: UACC-62; experiment: Cytotoxicity against human UACC62 assessed as cell growth at high concentration; type: functional
# [20] = system: SK-MEL-28; experiment: Cytotoxicity against human SK-MEL-28 assessed as cell growth at high concentration; type: functional
# [21] = system: SK-MEL-5; experiment: Cytotoxicity against human SK-MEL-5 assessed as cell growth at high concentration; type: functional
# [22] = system: M14; experiment: Cytotoxicity against human M14 assessed as cell growth at high concentration; type: functional
# [23] = system: Malme-3M; experiment: Cytotoxicity against human MALME-3M assessed as cell growth at high concentration; type: functional
# [24] = system: U-251; experiment: Cytotoxicity against human U251 assessed as cell growth at high concentration; type: functional
# [25] = system: SNB-19; experiment: Cytotoxicity against human SNB19 assessed as cell growth at high concentration; type: functional
# [26] = system: NCI-H226; experiment: Cytotoxicity against human NCI-H226 assessed as cell growth at high concentration; type: functional
# [27] = system: HOP-62; experiment: Cytotoxicity against human HOP62 assessed as cell growth at high concentration; type: functional
# [28] = system: HOP-92; experiment: Cytotoxicity against human HOP92 assessed as cell growth at high concentration; type: functional
# [29] = system: EKVX; experiment: Cytotoxicity against human EKVX assessed as cell growth at high concentration; type: functional
# [30] = system: A549; experiment: Cytotoxicity against human A549 assessed as cell growth at high concentration; type: functional
# [31] = system: RPMI-8226; experiment: Cytotoxicity against human RPMI8226 assessed as cell growth at high concentration; type: functional
# [32] = Selectivity index, ratio of CC50 for human MT4 cells to IC50 for HIV2 ROD; type: functional
# [33] = Cytotoxicity against human MT4 cells by MTT assay; type: cell-based
# [34] = Selectivity index, ratio of CC50 for human MT4 cells to IC50 for HIV1 3B; type: functional
# [35] = system: Human immunodeficiency virus 2; experiment: Antiviral activity against HIV2 ROD infected in MT4 cells assessed as inhibition of virus-induced cytopathogenicity by MTT assay; type: functional, organism-based; settings: Human immunodeficiency virus 2, ISOLATE ROD
# [36] = system: SF-295; experiment: Cytotoxicity against human SF295 assessed as cell growth at high concentration; type: functional
# [37] = system: SF-268; experiment: Cytotoxicity against human SF268 assessed as cell growth at high concentration; type: functional
# [38] = system: KM12; experiment: Cytotoxicity against human KM12 assessed as cell growth at high concentration; type: functional
# [39] = system: HT-29; experiment: Cytotoxicity against human HT-29 assessed as cell growth at high concentration; type: functional
# [40] = system: HCT-116; experiment: Cytotoxicity against human HCT116 assessed as cell growth at high concentration; type: functional
# [41] = system: Human immunodeficiency virus 1; experiment: Antiviral activity against HIV1 3B infected in MT4 cells assessed as inhibition of virus-induced cytopathogenicity by MTT assay; type: functional, organism-based; settings: Human immunodeficiency virus 1, 3B
# [42] = system: Human alphaherpesvirus 3; experiment: Antiviral activity against Varicella-zoster virus Oka expressing thymidine kinase infected in HEL cells assessed as reduction in plaque formation; type: functional, organism-based; settings: Human alphaherpesvirus 3, strain Oka vaccine
# [43] = Cytotoxicity against human HEL cells; type: cell-based
# [44] = system: Cytomegalovirus; experiment: Antiviral activity against Cytomegalovirus Davis in HEL cells assessed as reduction in plaque formation; type: functional, organism-based; settings: Human betaherpesvirus 5, Davis
# [45] = system: Aspergillus clavatus; experiment: Antifungal activity against Aspergillus clavatus MTCC 1323; type: functional
# [46] = system: Candida albicans; experiment: Antifungal activity against Candida albicans MTCC 227; type: functional
# [47] = system: Aspergillus niger; experiment: Antifungal activity against Aspergillus niger MTCC 282 at 250 ug/ml after 74 hrs by Kirby-Bauer method; type: functional; settings: MTCC 282, 74 h, read-out: IZ
# [48] = system: Aspergillus clavatus; experiment: Antifungal activity against Aspergillus clavatus MTCC 1323 at 250 ug/ml after 74 hrs by Kirby-Bauer method; type: functional; settings: MTCC 1323, 74 h, read-out: IZ
# [49] = system: Candida albicans; experiment: Antifungal activity against Candida albicans MTCC 227 at 250 ug/ml after 74 hrs by Kirby-Bauer method; type: functional; settings: MTCC 227, 74 h, read-out: IZ
# [50] = system: Pseudomonas aeruginosa; experiment: Antibacterial activity against Pseudomonas aeruginosa MTCC 424 after 24 hrs by broth dilution method; type: functional; settings: MTCC 424, 24 h
# [51] = system: Streptococcus pyogenes; experiment: Antibacterial activity against Streptococcus pyogenes MTCC 442 after 24 hrs by broth dilution method; type: functional; settings: MTCC 442, 24 h
# [52] = system: Escherichia coli; experiment: Antibacterial activity against Escherichia coli MTCC 443 after 24 hrs by broth dilution method; type: functional; settings: MTCC 443, 24 h
# [53] = system: Staphylococcus aureus; experiment: Antibacterial activity against Staphylococcus aureus MTCC 96 after 24 hrs by broth dilution method; type: functional; settings: MTCC 96, 24 h
# [54] = system: Escherichia coli; experiment: Antibacterial activity against Escherichia coli MTCC 443 at 250 ug/ml after 24 hrs by Kirby-Bauer method; type: functional; settings: MTCC 443, 24 h, read-out: IZ
# [55] = system: Streptococcus pyogenes; experiment: Antibacterial activity against Streptococcus pyogenes MTCC 442 at 250 ug/ml after 24 hrs by Kirby-Bauer method; type: functional; settings: MTCC 442, 24 h, read-out: IZ
# [56] = system: Staphylococcus aureus; experiment: Antibacterial activity against Staphylococcus aureus MTCC 96 at 250 ug/ml after 24 hrs by Kirby-Bauer method; type: functional; settings: MTCC 96, 24 h, read-out: IZ
compound,measurement,setting,value
Cc1ccc(-[n+]2noc([O-])c2CN2CCN(c3cccc(Cl)c3)CC2)cc1,Activity,[1],98.47%
same,Activity,[2],92.29%
same,Activity,[3],75.33%
same,Activity,[4],95.5%
same,Activity,[5],92.1%
same,Activity,[6],61.64%
same,Activity,[7],87.71%
same,Activity,[8],86.38%
same,Activity,[9],51.7%
same,Activity,[10],101.4%
same,Activity,[11],99.53%
same,Activity,[12],97.44%
same,Activity,[13],94.62%
same,Activity,[14],94.91%
same,Activity,[15],89.31%
same,Activity,[16],88.44%
same,Activity,[17],98.49%
same,Activity,[18],93.49%
same,Activity,[19],82.63%
same,Activity,[20],98.44%
same,Activity,[21],95.3%
same,Activity,[22],107.94%
same,Activity,[23],95.22%
same,Activity,[24],82.08%
same,Activity,[25],99.85%
same,Activity,[26],79.22%
same,Activity,[27],86.8%
same,Activity,[28],72.29%
same,Activity,[29],88.38%
same,Activity,[30],96.53%
same,Activity,[31],72.54%
same,Ratio CC50/IC50,[32],<1
same,CC50,[33],27.4 µg/mL
same,Ratio CC50/IC50,[34],<1
same,IC50,[35],> 27.4 µg/mL
same,Activity,[36],78.19%
same,Activity,[37],88.36%
same,Activity,[38],99.21%
same,Activity,[39],90.87%
same,Activity,[40],82.24%
same,IC50,[41],> 27.4 µg/mL
same,EC50,[42],> 20 µg/mL
same,CC50,[43],38.2 µg/mL
same,EC50,[44],> 20 µg/mL
same,MIC,[45],200 µg/mL
same,MIC,[46],200 µg/mL
same,zone of inhibition at 250 µg/mL,[47],23 mm
same,zone of inhibition at 250 µg/mL,[48],24 mm
same,zone of inhibition at 250 µg/mL,[49],21 mm
same,MIC,[50],150 µg/mL
same,MIC,[51],125 µg/mL
same,MIC,[52],100 µg/mL
same,MIC,[53],62.5 µg/mL
same,zone of inhibition at 250 µg/mL,[54],22 mm
same,zone of inhibition at 250 µg/mL,[55],20 mm
same,zone of inhibition at 250 µg/mL,[56],22 mm
Cc1ccc(-[n+]2noc([O-])c2CN2CCNCC2)cc1,Activity,[1],110.58%
same,Activity,[2],101.05%
same,Activity,[3],86.16%
same,Activity,[4],102.16%
same,Activity,[5],90.74%
same,Activity,[6],70.1%
same,Activity,[7],91.43%
same,Activity,[8],91.35%
same,Activity,[9],91.02%
same,Activity,[10],105.96%
same,Activity,[11],97.27%
same,Activity,[12],99.62%
same,Activity,[13],96.81%
same,Activity,[14],104.3%
same,Activity,[15],114.7%
same,Activity,[16],101.12%
same,Activity,[17],101.72%
same,Activity,[18],96.41%
same,Activity,[19],93.66%
same,Activity,[20],105.58%
same,Activity,[21],100.25%
same,Activity,[22],105.86%
same,Activity,[23],109.79%
same,Activity,[24],91.33%
same,Activity,[25],103.47%
same,Activity,[26],84.85%
same,Activity,[27],90.65%
same,Activity,[28],76.22%
same,Activity,[29],104.33%
same,Activity,[30],99.61%
same,Activity,[31],100.12%
same,Ratio CC50/IC50,[32],<1
same,CC50,[33],32.6 µg/mL
same,Ratio CC50/IC50,[34],<1
same,IC50,[35],> 32.6 µg/mL
same,Activity,[36],98.69%
same,Activity,[37],95.92%
same,Activity,[38],91.06%
same,Activity,[39],105.21%
same,Activity,[40],108.38%
same,IC50,[41],> 32.6 µg/mL
same,EC50,[42],> 20 µg/mL
same,CC50,[43],46 µg/mL
same,EC50,[44],> 20 µg/mL
same,MIC,[45],200 µg/mL
same,MIC,[46],200 µg/mL
same,zone of inhibition at 250 µg/mL,[47],25 mm
same,zone of inhibition at 250 µg/mL,[48],24 mm
same,zone of inhibition at 250 µg/mL,[49],21 mm
same,MIC,[50],50 µg/mL
same,MIC,[51],500 µg/mL
same,MIC,[52],100 µg/mL
same,MIC,[53],200 µg/mL
same,zone of inhibition at 250 µg/mL,[54],21 mm
same,zone of inhibition at 250 µg/mL,[55],17 mm
same,zone of inhibition at 250 µg/mL,[56],17 mm
